Consider four compounds from paper PMC10683025, “Discovery of a Hydroxylamine-Based Brain-Penetrant EGFR Inhibitor for Metastatic Non-Small-Cell Lung Cancer” (Journal of Medicinal Chemistry, 2023).

Converted amounts (≈) assume the structure as drawn. Where two headings read alike, the source gives them in different places. Where only a bound is given, the exact number is not on record here.

What is called Kd is the free concentration of one partner at which half of the binding sites on the other are occupied at equilibrium, for simple one-to-one binding. As usually defined, the IC50 is the midpoint of a concentration-inhibition curve. One may read the efflux ratio as the permeability from basolateral to apical divided by that in the opposite direction, in the common usage. As usually defined, the Papp A→B is the apparent permeability from the apical to the basolateral side of a cell layer. Low readings indicate slow passage, high ones fast passage. For orientation: Papp B→A means how fast a substance crosses the layer from the basolateral side.

Series [1] has as its target T1, EGFRwt (Homo sapiens, UniProt P00533).
T1 construct: purchased Eurofins DiscoverX (contract assay)
Nature of the series: KINOMEScan KdELECT Kd determination. As to conditions: wt; read-out: EGFR Kd. In kind it is binding.

A further series concerns the target T2, EGFR del E746_A750 (Homo sapiens, UniProt P00533, DEL746-750).
T2 construct: purchased Eurofins DiscoverX (contract assay)
Nature of the series: KINOMEScan KdELECT Kd determination. In kind it is binding.

Series [2] has as its target T1, EGFRwt. Put plainly: KinaseProfiler enzymatic radiometric assay. In kind it is biochemical. The note with it: wt, ATP 10 μM; read-out: EGFR IC50.
Series [3] relates to HCC827 (EGFR mutation = exon19del). Nature of the series: CellTiter-Glo cell viability assay. The note with it: 72 h, unadjusted for FBS. In kind it is cell-based, human.
The test system of series [4] is NCI-H3255 (EGFR mutation = L858R). Nature of the series: CellTiter-Glo cell viability assay. In kind it is cell-based, human. As to conditions: 72 h, unadjusted for FBS. For orientation: In ATP-based viability assays light output follows the ATP content of the culture.
A short description of series [5]: Lipophilicity, shake-flask. In kind it is physicochemical. The note with it: 1-octanol/PBS; 1-octanol and PBS (pH 7.4); read-out: logD7.4. The method, then:
Compound lipophilicity was determined by Pharmaron, Inc. using the shake-flask method with 1-octanol and PBS (pH 7.4). Each compound was assessed in duplicate (n = 2) at 1 μM in a 96-well plate shaken at 25 °C and 2000 rpm for 2 h. Samples were analyzed by liquid chromatography and tandem mass spectrometry (LC-MS/MS).

The nature of a further series: Solubility assay. In kind it is physicochemical. The note with it: buffer, pH 7.4, aqueous buffer; read-out: Aq. Sol. As to the method:
Solubility was determined by Pharmaron, Inc. and each compound was assessed in duplicate (n = 2) by adding 15 μL of compound stock solution (10 mM in DMSO) into a 96-well plate along with 485 μL of buffer followed by shaking at 25 °C, 1100 rpm for 2 h. Wells were filtered, and samples (5 μL) were taken followed by dilution with an equal volume of DMSO (5 μL) and 490 μL of aqueous solution. Samples were analyzed by LC-MS/MS.

Series [6] in a line: Metabolic stability in liver microsomes. In kind it is in vitro ADME, human. The note with it: for Remaining Percentage: human LM.
The nature of series [7]: Metabolic stability in liver microsomes. In kind it is in vitro ADME, Sprague-Dawley rat. The note with it: for Remaining Percentage: rat LM. Background: Microsomes from liver hold many membrane-bound enzymes, among them those of drug oxidation.
A further series is described as follows: Caco-2 permeability. In kind it is in vitro ADME. As to conditions: human; for recovery at 2 h, 5 μM: Caco-2, Caco-2.
Another series is described as follows: MDCKII-MDR1 permeability. In kind it is in vitro ADME, canine. As to conditions: dog, MDCK-MDR1, MDCKII-MDR1.
In another series the test system is MDR1. Nature of the series: MDCKII-MDR1 permeability. In kind it is in vitro ADME, canine. As to conditions: dog, MDCK-MDR1.
Series [8] addresses T3, EGFRL858R (Homo sapiens, UniProt P00533, L858R). Put plainly: KINOMEScan KdELECT Kd determination. Also noted: purchased Eurofins DiscoverX (contract assay). In kind it is binding. As to conditions: L858R.
The target in series [9] is T3, EGFRL858R. Nature of the series: KinaseProfiler enzymatic radiometric assay. The note with it: ATP 10 μM, read-out: EGFR IC50. The arrangement: purchased Eurofins Cerep (KinaseProfiler, contract assay). In kind it is biochemical.
On the set-up of series [10]: method as in ref 56−59. As to conditions: ref 56−59; cited from earlier work.
Series [11] deals with Ba/F3 EGFR-L858R/C797S cells. Nature of the series: CellTiter-Glo cell viability assay. In kind it is cell-based. As to conditions: 72 h, unadjusted for FBS. The method, then:
(§1) The A431, HCC827, SK-BR-3, ZR-75–30, AU565, and Caco-2 cell lines were obtained from ATCC. The NCI-H1975 cell line was obtained from SIBS. The NCI-H3255 cell line was obtained from CoBioer. Engineered Ba/F3 cell lines were obtained from Crown Bioscience. MCKII-MDR1 cells were obtained from The Netherlands Cancer Institute. HEK293 cells were obtained from Invitrogen. A431 cells were cultured in DMEM (Life Technologies) with 10% FBS. HCC827, NCI-H1975, and AU565 cells were cultured in RPMI1640 (Invitrogen) with 10% FBS. NCI-H3255 cells were cultured in BEGM (Lonza) with 10% FBS. Ba/F3 EGFR-del E746_A750/C797S and Ba/F3 EGFR-L858R/C797S cells were cultured in RPMI (Invitrogen) with 10% FBS. SK-BR-3 cells were cultured in McCoy’s 5a (Invitrogen) with 10% FBS. ZR-75-30 cells were cultured in RPMI1640 (Invitrogen) with 20% FBS. Caco-2 and MCKII-MDR1 culture information is given in the Permeability Studies section. HEK293 cells were cultured in DMEM (Gibco) with 10% FBS, 0.1 mM NEAA, 25 mM HEPES, 100 U/mL penicillin-streptomycin, μg/mL blasticidin, and 400 μg/mL Geneticin. All cells were cultured in a humidified incubator with 5% CO2 at 37 °C.
(§2) Viability assays using A431, HCC827, NCI-H1975, NCI-H3255, Ba/F3 EGFR-del E746_A750/C797S, Ba/F3 EGFR-L858R/C797S, AU565, SK-BR-3, and ZR-75-30 cells were performed at Crown BioScience. Cells were plated into 96-well plates at 1500–7000 cells per well and dosed in triplicate (n = 3) in a nine-point, 4-fold dilution series with compounds (0.15 nM to 10 μM) in DMSO and incubated for 72 h. After 72 h, cell viability was assayed by CellTiter-Glo Luminescent Viability Assay (Promega). Dose–response curves were generated and used to calculate the IC50 values which were calculated on GraphPad Prism from the nonlinear regression equation fitted with a sigmoidal dose response and are presented as mean ± SEM.

For series [12], the system named is Ba/F3 EGFR-del E746_A750/C797S cells. Nature of the series: CellTiter-Glo cell viability assay. In kind it is cell-based. As to conditions: 72 h, unadjusted for FBS. The method, then:
as §1, §2

For series [13], the system named is A431 cell line (overexpressed EGFRwt). Nature of the series: CellTiter-Glo cell viability assay. In kind it is cell-based, human. As to conditions: 72 h, unadjusted for FBS. The method, then: as §1, §2
Series [14] has as its system AU565 (HER2-positive breast cancer). Put plainly: CellTiter-Glo cell viability assay. In kind it is cell-based, human. The note with it: 72 h, unadjusted for FBS. The method, then:
as §1, §2

Series [15] concerns NCI-H1975 (EGFR mutation = L858R/T790M). Put plainly: CellTiter-Glo cell viability assay. In kind it is cell-based, human. The note with it: 72 h, unadjusted for FBS. As to the method: as §1, §2
Series [16] concerns SK-BR-3 (HER2-positive breast cancer). Put plainly: CellTiter-Glo cell viability assay. In kind it is cell-based, human. As to conditions: 72 h, unadjusted for FBS. As to the method:
as §1, §2

Series [17] deals with ZR-75-30 (HER2-positive breast cancer). Nature of the series: CellTiter-Glo cell viability assay. In kind it is cell-based, human. The note with it: 72 h, unadjusted for FBS. The method, then:
as §1, §2

T3 sequence (P00533 25-1210 L858R): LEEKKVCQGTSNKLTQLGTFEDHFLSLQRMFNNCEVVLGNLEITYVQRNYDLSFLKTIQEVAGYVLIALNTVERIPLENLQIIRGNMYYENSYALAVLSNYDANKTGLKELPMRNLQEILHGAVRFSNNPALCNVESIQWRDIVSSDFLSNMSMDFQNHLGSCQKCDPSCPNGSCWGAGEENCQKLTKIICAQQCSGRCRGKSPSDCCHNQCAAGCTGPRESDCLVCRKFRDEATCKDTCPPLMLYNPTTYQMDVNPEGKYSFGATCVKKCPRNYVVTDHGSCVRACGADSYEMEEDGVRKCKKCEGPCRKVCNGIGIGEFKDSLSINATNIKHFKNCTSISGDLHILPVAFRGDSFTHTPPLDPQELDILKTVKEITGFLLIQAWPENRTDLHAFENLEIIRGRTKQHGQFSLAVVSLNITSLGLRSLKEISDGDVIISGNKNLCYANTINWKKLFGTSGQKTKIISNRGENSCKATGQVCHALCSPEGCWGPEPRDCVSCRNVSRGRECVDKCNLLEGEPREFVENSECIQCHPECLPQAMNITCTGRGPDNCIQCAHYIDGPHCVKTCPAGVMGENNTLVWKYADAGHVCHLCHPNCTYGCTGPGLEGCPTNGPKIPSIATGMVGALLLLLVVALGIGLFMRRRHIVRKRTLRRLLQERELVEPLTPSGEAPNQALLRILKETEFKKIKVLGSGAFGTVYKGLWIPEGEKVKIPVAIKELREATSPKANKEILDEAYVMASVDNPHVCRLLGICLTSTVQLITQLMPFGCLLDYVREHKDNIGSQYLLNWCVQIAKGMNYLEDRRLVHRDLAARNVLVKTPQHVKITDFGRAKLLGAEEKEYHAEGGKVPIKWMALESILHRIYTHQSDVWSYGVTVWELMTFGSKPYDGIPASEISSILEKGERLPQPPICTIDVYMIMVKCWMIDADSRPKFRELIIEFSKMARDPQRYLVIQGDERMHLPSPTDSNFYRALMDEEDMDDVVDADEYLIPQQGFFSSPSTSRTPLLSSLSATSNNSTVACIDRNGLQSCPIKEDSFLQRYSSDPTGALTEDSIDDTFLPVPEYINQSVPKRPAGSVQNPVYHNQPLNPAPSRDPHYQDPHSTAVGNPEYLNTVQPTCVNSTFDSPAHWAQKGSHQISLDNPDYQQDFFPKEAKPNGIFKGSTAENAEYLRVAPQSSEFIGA
T1 sequence (P00533 25-1210): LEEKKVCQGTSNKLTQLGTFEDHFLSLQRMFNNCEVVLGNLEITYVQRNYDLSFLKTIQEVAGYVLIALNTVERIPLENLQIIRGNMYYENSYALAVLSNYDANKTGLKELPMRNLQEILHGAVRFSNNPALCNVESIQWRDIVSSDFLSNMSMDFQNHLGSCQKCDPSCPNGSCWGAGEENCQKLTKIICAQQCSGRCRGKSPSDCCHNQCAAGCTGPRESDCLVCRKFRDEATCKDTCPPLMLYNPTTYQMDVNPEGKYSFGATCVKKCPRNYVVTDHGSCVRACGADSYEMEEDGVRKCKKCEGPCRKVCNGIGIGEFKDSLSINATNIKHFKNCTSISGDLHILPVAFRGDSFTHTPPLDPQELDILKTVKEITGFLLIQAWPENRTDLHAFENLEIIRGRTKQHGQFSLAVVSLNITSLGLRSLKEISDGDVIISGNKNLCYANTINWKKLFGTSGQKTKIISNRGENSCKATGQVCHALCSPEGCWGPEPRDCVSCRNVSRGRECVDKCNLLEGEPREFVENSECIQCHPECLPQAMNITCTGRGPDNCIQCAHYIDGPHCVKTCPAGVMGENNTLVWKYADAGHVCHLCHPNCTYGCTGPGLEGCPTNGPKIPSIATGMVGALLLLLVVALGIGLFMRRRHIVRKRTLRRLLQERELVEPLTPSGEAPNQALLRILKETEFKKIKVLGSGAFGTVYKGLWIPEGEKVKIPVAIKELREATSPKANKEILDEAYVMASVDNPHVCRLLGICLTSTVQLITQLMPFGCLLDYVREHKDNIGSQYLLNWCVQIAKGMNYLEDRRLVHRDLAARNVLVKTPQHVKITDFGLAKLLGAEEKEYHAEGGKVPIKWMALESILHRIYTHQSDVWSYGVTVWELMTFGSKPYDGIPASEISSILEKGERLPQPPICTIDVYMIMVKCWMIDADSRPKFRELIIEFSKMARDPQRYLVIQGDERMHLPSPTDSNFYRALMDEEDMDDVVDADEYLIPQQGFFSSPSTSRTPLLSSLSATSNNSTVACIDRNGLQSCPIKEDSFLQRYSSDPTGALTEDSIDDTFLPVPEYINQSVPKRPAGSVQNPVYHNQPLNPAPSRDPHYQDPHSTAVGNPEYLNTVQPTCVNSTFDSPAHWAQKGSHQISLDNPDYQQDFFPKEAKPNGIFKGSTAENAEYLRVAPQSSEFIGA
T2 sequence (P00533 with tags, fused parts or gaps DEL746-750): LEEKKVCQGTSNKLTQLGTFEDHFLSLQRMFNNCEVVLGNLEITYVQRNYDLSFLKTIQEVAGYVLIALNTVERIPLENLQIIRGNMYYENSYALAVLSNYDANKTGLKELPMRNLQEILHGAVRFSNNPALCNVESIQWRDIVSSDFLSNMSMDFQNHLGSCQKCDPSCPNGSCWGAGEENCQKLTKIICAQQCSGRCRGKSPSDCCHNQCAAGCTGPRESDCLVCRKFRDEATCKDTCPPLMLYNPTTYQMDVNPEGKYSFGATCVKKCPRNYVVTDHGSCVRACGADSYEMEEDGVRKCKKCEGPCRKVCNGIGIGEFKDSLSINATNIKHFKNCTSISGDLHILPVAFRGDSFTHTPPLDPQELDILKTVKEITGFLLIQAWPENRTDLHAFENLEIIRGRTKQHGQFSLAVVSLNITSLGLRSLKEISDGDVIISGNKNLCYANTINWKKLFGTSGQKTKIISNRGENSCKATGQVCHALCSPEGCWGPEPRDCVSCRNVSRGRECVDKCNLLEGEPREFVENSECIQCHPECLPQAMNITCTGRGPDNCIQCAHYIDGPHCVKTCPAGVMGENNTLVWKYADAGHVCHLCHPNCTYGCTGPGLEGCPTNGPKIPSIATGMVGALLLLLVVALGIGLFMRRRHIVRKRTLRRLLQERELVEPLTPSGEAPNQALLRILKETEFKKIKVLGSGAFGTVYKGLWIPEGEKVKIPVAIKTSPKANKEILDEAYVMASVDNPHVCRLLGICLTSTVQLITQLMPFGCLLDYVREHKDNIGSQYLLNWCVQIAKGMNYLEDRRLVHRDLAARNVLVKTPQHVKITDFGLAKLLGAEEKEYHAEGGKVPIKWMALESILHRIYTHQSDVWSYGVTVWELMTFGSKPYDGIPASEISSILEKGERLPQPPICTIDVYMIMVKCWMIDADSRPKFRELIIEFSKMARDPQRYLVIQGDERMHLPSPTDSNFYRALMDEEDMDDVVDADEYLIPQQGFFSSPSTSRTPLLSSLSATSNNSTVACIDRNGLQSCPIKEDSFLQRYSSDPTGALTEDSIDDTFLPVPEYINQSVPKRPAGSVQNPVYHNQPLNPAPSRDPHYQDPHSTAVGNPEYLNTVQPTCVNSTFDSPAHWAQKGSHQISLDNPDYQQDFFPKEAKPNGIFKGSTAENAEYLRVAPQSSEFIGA

As to `COc1cc2ncnc(Nc3ccc(F)c(Cl)c3)c2cc1OCCON1CCN(C)CC1` [Compound 8, N-(3-Chloro-4-fluorophenyl)-7-methoxy-6-(2-((4-methylpiperazin-1-yl)oxy)ethoxy)quinazolin-4-amine], the values for the Kd at EGFRwt [1], at EGFR del E746_A750 and on EGFRL858R [8] were 0.8 nM, 0.4 nM and 0.6 nM, respectively. The IC50 at EGFRwt [2] worked out at 3 nM; in [3] (Homo sapiens, HCC827), 15 nM; in series [4] (Homo sapiens, NCI-H3255) it was 37 nM; at EGFRL858R [9], 2 nM. Further, in series [5], the logD at 2 h, 1 µM is 3.3. Besides, the solubility kinetic at 2 h in “Solubility assay” was 18 µM (≈ 8.31 µg/mL). In addition, the “Remaining Percentage” value in series [6] (+Cofactors, 15 min) was 60.04%; in series [6] (+Cofactors, 30 min), 39.49%; in series [6] (+Cofactors, 45 min) it was 24.83%; in series [6] (+Cofactors, 60 min), 20.34%; in series [6] (-Cofactors, 60 min) it was 95.02%; in series [7] (+Cofactors, 15 min), 58.02%. Moreover, the “Remaining Percentage” value in series [7] (+Cofactors, 30 min) is recorded as 32.28%; in [7] (+Cofactors, 45 min), 22.82%; in series [7] (+Cofactors, 60 min) it was 15.90%; in series [7] (-Cofactors, 60 min) it was 97.68%. The half-life at 1 h, 1 µM in [6] (human, liver microsomes, read-out: LM t1/2) worked out at 25.4 min; in series [7] (Sprague-Dawley, rat, liver microsomes, read-out: LM t1/2) it was 22.4 min. Moreover, the microsomal CLint at 1 h, 1 µM is 55 µL/min/mg in [6] (human, liver microsomes, read-out: LMClint) and 62 µL/min/mg in [7] (Sprague-Dawley, rat, liver microsomes, read-out: LMClint). The efflux ratio at 2 h, 5 µM in “Caco-2 permeability” (Caco-2) amounted to 20.2. For the same compound, the efflux ratio at 2 h, 5 μM in “Caco-2 permeability” (Caco-2) stood at 19.3. The recovery at 2 h, 5 μM is 63.3% in “Caco-2 permeability” (read-out: Recovery% (AP-BL)) and 72.3% in “Caco-2 permeability” (read-out: Recovery% (BL-AP)). In “Caco-2 permeability” (Caco-2, 5 μM, 2 h), the Papp A→B at 2 h, 5 µM was 0.6 ×10⁻⁶ cm/s. Also, in “Caco-2 permeability” (Caco-2, 5 μM, 2 h), the Papp A→B at 2 h, 5 μM worked out at 0.63 ×10⁻⁶ cm/s. Moreover, the Papp B→A at 2 h, 5 µM in “Caco-2 permeability” (Caco-2, 5 μM, 2 h) is 12.1 ×10⁻⁶ cm/s. The recovery at 2 h, 1 μM worked out at 58.6% in “MDCKII-MDR1 permeability” (read-out: Recovery% (AP-BL)) and 76.1% in the series “MDCKII-MDR1 permeability” (read-out: Recovery% (BL-AP)). In addition, the efflux ratio at 2 h, 1 µM in the series on MDR1 was determined as 8.7. Also, in the series with MDR1, the efflux ratio at 2 h, 1 μM came to 8.65. In the series on MDR1 (1 μM, 2 h), this compound showed a Papp A→B at 2 h, 1 µM of 1.4 ×10⁻⁶ cm/s. Also, in the series with MDR1 (1 μM, 2 h), the Papp A→B at 2 h, 1 μM was found to be 1.35 ×10⁻⁶ cm/s. The Papp B→A at 2 h, 1 µM with MDR1 (1 μM, 2 h) is 11.7 ×10⁻⁶ cm/s. The compound also displayed a Papp B→A at 2 h, 1 μM in the series with MDR1 (1 μM, 2 h) of 11.7 ×10⁻⁶ cm/s.
In the case of `Fc1c(Br)cccc1Nc1ncnc2cc3c(cc12)OCCO3` [JCN037], in series [10], the “Kp,uu brain (AUC0-7h)” value is given as 1.3.
With `N.N.[Cl][Pt][Cl]` [Cisplatin, reference compound], the half-maximal inhibitory concentration (IC50) was greater than 10000 nM in series [3]; greater than 10000 nM in [4]; 411 ± 10 nM in series [11]; 361 ± 15 nM in [12]; 4150 nM in series [13]; 2570 nM in [14]. The results for the IC50 in [15], in series [16] and in series [17] were 8800 nM, 1960 nM and 4180 nM, respectively.
As to `COc1cc2ncnc(Nc3cccc(Cl)c3F)c2cc1OC(=O)N1CCN(C)C[C@H]1C` [AZD3759], the “Kp,uu brain (AUC0-7h)” value in series [10] is 1.3.
